Assay results taken from PMC9767854, “Discovery and mechanism studies of a novel ATG4B inhibitor Ebselen by drug repurposing and its anti-colorectal cancer effects in mice” (Cell & Bioscience, 2022).

Columns and labels:
[1] = target: T1, Recombinant protein ATG4A (Homo sapiens, UniProt Q8WYN0); assay: FRET-based assay for ATG4A activity; assay type: biochemical; conditions: FRET-based enzymatic cleavage
T1 construct: 6xHis; made in house; host or cells: E. coli BL21(DE3)
Method: FRET-based assay for ATG4B or ATG4A activity was operated as previously described. Briefly, Recombinant protein ATG4B (0.75 μg/ml) or ATG4A (5 μg/ml) was incubated with compounds in reaction buffer (150 mM NaCl, 20 mM Tris–HCl, pH 8.0, 0.1% CHAPS, 1 mM EDTA) at 37 °C. After 30 min, substrate FRET-GATE-16 (50 μg/ml) was added to a final volume of 50 μl. The reaction was recorded via relative fluorescence intensity ratio of 527 nm/477 nm (RFU). The final inhibition rate of the compound for ATG4 was calculated as: (RFUcompound-RFUNC)/(RFUCON-RFUNC) × 100%; respectively, NC as negative control without inhibitor, CON as control without enzymes. For ATG4 activity determination in cells and tissues, cells or separated tumor samples were homogenized in a native lysis buffer (150 mM NaCl, 20 mM Tris–HCl, pH 7.6, 1% TritonX-100, 1 mM EDTA) without protease inhibitors. Then 5 μg total proteins from each sample was added into FRET assay system after clean supernatant proteins were separated. The reaction was recorded via relative fluorescence intensity ratio of 527 nm/477 nm. Finally, the inhibition rates of ATG4B were calculated with the vehicle or CM group as the negative control (ATG4 activity defined as 100%).

ATG4B = target: T2, ATG4B (Homo sapiens, UniProt Q9Y4P1); assay: In vitro thermal shift assay, ATG4B WT; assay type: binding; conditions: ATG4B 100 nM, Ebselen 1 μM, compared with DMSO
T2 construct: 6xHis; made in house; host or cells: E. coli BL21(DE3)
T2 sequence (Q9Y4P1 1-393): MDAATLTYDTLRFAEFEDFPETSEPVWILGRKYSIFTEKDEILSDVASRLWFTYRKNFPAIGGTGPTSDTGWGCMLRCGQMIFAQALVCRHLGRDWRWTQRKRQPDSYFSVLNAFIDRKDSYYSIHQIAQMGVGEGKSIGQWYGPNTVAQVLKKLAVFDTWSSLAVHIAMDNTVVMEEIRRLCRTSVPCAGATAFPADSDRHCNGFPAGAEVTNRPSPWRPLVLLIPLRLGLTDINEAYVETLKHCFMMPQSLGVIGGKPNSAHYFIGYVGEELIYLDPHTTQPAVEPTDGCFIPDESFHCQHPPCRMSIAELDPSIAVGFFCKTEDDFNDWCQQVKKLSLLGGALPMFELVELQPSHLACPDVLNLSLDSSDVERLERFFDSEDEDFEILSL
Method: (§1) For in vitro thermal shift assay, recombinant protein ATG4B or C74S mutant (100 nM) was incubated with Ebselen (1 μM) (DMSO as control) in the PCR tubes. The PCR instrument program was set at 25 °C for 10 min, 37 °C to 70 °C for 30 min and followed by cooling tubes for 5 min at room temperature. Then centrifuged at 12,000 rpm for 10 min at 4 °C, soluble fractions were separated from precipitates to be analyzed by SDS-PAGE and immunoblotting.

ATG4B C74S mutant = target: T3, ATG4B C74S mutant (Homo sapiens, UniProt Q9Y4P1, C74S); assay: In vitro thermal shift assay, ATG4B C74S mutant; assay type: binding; conditions: C74S mutant 100 nM, Ebselen 1 μM, compared with DMSO
T3 construct: 6xHis; made in house; host or cells: E. coli BL21(DE3)
Method: as §1

ATG4B KO HCT116 = assay: Cell viability by CCK-8 assay, ATG4B KO HCT116; assay type: cell-based
Method: (§2) WT/ATG4B KO HCT116, WT/ATG4B KO SW620 and WT/ATG4B KO RKO cells were seeded in 96-well plate at 1000–1500 cells per well for cell viability assay, and seed in 6-well plate at 1 × 10^5 cells per well for cell number counting. After 12 h, the indicated drugs were added to the medium and cultured for another 96 h. Total viable cell numbers were counted by a cell counter (BioRAD), and cell viability was determined by cell-count-8 assay kit (CCK-8, Bimake, B34304) according to the manufacturer’s protocol.

HCT116 cells = assay: Cell counting and colony formation assays; assay type: cell-based
Method: For colony formation, WT HCT116 and ATG4B KO HCT116 cells were seeded in 6-well plates at 800 cells per well and cultured for 9–12 days, respectively. Concurrently, medium containing indicated compounds were replaced every 3 days, before the cells were fixed in 4% paraformaldehyde for 20 min and washed with PBS three times. Then colonies were stained with crystal violet (Beyotime, C0121) for 1 h and excess dyes were washed with PBS. Eventually, colonies more than 1 mm were counted in at least three independent experiments.
as §2

[2] = Body weight and organ H&E in xenografted mice; assay type: in vivo, BALB/c-nu/nu mice; conditions: 5, 10, 20 mg/kg i.p. every two days
Method: (§3) Four- to six-weeks-old BALB/C nu/nu female mice purchased from the Experimental Animal Center of Sun Yat-Sen University, were approved by the Animal Ethics Committee at Sun Yat-sen University and kept in specific-pathogen-free environment. Approximately 2 × 10^6 SW620 cells or 1 × 10^7 HCT116 cells were injected subcutaneously into the dorsal flank on the right side of the mice. Different groups were divided randomly when the tumor volume was approximately 60–80 mm^3, before drug administration intraperitoneally (i.p.). Tumor volume was measured by calipers and calculated using the equation: 0.5 × length × width^2. At the end of the experiments, the mice were sacrificed and tumors were dissected and weighed. In particular, we employed Servicebio (Wuhan, China) to carry out H&E staining and immunohistochemistry assay.
Supplementary file 13578_2022_944_MOESM1_ESM.docx: Additional file 1: Figure S1. Screening of ATG4B inhibitors based on the approved drugs library by FRET assay. […] (D) Candidate compound number and name correspondence table, and IC50 calculation of nine commercially available compounds for ATG4B by FRET assay. Figure S2. […] Figure S3. […] Figure S5. […] Figure S6.

xenografted tumors = assay: Autophagy, apoptosis and Ki67 markers in xenografted tumors; assay type: in vivo, BALB/c-nu/nu mice
Method: Fig. 7 Ebselen suppresses colorectal cancer tumor growth. A A brief diagram of the animal experiment for subcutaneous xenografted tumor model. 2 × 10^6 (2e^6) SW620 cells were xenografted into BALB/c-nu/nu mice by subcutaneous injection (s.c.). After 10 days, mice were injected intraperitoneally (i.p.) with indicated doses of Ebselen every two days, and monitoring of tumor volume and body weight changes were performed. B–D Representative tumor images and tumor weight at the end time point were captured from SW620 cell-based xenografts. Mean tumor weight ± SEM (C) and mean tumor volume ± SEM (D) were shown. E The inhibitory effect of ATG4 in xenografted tumors was detected by FRET assay. F, I The protein level of autophagy and apoptosis in xenografted tumors were detected by western blot. Representative results were shown and the statistical results of each group were obtained from seven mice. J, K The immunohistochemistry analysis of Ki67 in xenografted tumors (group vehicle and Ebselen 10 mg/kg). Bar = 20 μm. The positive Ki67 area rate was obtained from the ratio of positive Ki67 area to total cell area by Image J
as §3

T3 sequence (Q9Y4P1 whole entry C74S): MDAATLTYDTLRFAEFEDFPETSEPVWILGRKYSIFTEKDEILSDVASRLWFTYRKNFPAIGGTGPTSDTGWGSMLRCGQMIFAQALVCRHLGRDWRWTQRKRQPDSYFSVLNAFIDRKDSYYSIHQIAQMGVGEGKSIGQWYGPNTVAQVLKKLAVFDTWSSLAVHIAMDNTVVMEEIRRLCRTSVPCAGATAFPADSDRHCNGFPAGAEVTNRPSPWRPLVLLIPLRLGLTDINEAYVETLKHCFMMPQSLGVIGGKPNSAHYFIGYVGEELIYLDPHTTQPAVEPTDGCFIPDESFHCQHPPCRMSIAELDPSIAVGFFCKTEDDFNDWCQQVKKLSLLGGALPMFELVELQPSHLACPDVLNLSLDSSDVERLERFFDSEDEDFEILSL
T1 sequence (Q8WYN0 whole entry): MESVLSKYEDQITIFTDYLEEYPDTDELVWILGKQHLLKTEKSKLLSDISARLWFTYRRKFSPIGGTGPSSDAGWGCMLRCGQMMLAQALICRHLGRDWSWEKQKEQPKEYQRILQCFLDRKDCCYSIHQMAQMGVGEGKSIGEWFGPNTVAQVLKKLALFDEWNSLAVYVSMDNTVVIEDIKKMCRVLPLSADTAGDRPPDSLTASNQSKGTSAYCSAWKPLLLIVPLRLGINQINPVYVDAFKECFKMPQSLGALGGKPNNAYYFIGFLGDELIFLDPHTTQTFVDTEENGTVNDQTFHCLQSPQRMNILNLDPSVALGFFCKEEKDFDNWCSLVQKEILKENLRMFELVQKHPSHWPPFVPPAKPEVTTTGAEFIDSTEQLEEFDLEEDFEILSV

O=c1c2ccccc2[se]n1-c1ccccc1 [Ebselen]
inhibition of ATG4A compared to ATG4B [1]: weaker inhibition | thermal stability of wild type ATG4B (ATG4B): strikingly improved | thermal stability of C74S mutant (ATG4B C74S mutant): still a little increased | effect on viability of ATG4B deficient cells (ATG4B KO HCT116; Fig. 6F): almost no effect | IC50 (ATG4B KO HCT116; Homo sapiens, HCT-116, CCK-8, 96 h): 28.1 µM | cell proliferation and colony formation (HCT116 cells): significantly inhibit | body weight change or organs damage [2]: no obvious mice body weight change or organs damage | Ki67 positivity in tumors (xenografted tumors; Ebselen 10 mg/kg, immunohistochemistry): significant reduction of Ki67 positivity | autophagy flux in tumors (LC3-II, p62) (xenografted tumors; compared with the vehicle group): significantly inhibited | apoptosis of tumors (xenografted tumors; western blot): inhibited the apoptosis of tumors in a dose-dependent manner
